Measurements published in patent US20260337208A1, “HETEROCYCLIC DERIVATIVES AS JANUS KINASE INHIBITORS” (CHIESI FARMACEUTICI S.P.A., priority 2022, published 2026).

Assays:
[1] = RA patients, including a subgroup with interstitial lung disease; cited from earlier work
[2] = cited from earlier work; for admission rate of the intensive care unit / incidence of acute respiratory distress syndrome (ARDS) / risk of mortality / use of invasive mechanical ventilation: COVID-19
[3] = bleomycin-induced fibrosis mouse model; cited from earlier work
OVA-challenged mice = details: given as dry powder; cited from earlier work
[4] = system: mouse model of chronic exposure to AAH allergens; details: cited from earlier work
[5] = in vivo; cited from earlier work
[6] = in combination with nintedanib; case report; cited from earlier work
[7] = system: house dust mite mouse model of asthma; details: formulated for being administered as aerosol; cited from earlier work
JAK1 = JAK1 (Homo sapiens, UniProt P23458); assay: Biochemical potency on JAK1, TR-FRET (LANCE Ultra kinase assay); details: ATP corresponding to Km; cell-free; read-out: JAK1 inhibitory activity (pIC50) (converted)
Summary of the method: (§1)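 ULight-JAK-1 (Tyr1023) peptide phosphorylation at Km ATP, 1.5 h r.t.; substrate solution held peptide 30/50/20/10 nM and ATP 20/0.7/0.2/12 μM, enzyme solution 0.15/0.083/0.025/0.144 ng/μL (JAK1/JAK2/JAK3/TYK2). EDTA stop, Eu-PT66 antibody TR-FRET read at 665 nm; 11-point 5-fold dilutions from 20 μM; IC50 by variable-slope fit.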

JAK2 = JAK2 (Homo sapiens, UniProt O60674); assay: Biochemical potency on JAK2, TR-FRET (LANCE Ultra kinase assay); details: ATP corresponding to Km; cell-free; read-out: JAK2 inhibitory activity (pIC50) (converted)
Summary of the method: as §1

JAK3 = molecular target: T1, JAK3 (Homo sapiens, UniProt P52333); assay: Biochemical potency on JAK3, TR-FRET (LANCE Ultra kinase assay); details: ATP corresponding to Km; cell-free; read-out: JAK3 inhibitory activity (pIC50) (converted)
T1 sequence (P52333 1-1124): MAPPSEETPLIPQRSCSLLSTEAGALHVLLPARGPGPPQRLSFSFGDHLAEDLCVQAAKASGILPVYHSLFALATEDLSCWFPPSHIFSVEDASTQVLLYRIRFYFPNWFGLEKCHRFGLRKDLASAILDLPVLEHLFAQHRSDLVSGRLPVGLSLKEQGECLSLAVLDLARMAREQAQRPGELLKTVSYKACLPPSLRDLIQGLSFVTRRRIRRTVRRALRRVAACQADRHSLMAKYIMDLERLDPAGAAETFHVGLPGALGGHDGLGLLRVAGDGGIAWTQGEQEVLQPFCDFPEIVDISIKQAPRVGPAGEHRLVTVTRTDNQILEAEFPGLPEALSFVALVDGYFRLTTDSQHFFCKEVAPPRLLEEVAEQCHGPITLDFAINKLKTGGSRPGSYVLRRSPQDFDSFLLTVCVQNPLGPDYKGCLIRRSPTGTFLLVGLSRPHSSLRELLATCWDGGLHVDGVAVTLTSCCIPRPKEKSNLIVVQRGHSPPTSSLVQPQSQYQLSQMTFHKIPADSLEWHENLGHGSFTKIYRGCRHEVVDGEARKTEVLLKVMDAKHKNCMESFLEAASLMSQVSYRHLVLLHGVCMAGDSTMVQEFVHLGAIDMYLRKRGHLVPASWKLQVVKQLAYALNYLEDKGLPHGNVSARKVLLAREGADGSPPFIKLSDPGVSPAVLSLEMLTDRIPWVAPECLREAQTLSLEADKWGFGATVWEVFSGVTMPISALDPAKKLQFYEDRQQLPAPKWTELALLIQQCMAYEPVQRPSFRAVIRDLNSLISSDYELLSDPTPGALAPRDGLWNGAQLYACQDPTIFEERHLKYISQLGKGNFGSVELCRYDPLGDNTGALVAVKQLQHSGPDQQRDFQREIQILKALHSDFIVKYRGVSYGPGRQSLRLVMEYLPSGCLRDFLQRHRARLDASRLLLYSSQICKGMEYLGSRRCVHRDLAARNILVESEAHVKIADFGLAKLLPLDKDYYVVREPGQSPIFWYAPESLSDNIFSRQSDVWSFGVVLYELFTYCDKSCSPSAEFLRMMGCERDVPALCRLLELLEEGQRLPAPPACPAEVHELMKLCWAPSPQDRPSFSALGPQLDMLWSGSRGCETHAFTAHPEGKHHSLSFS
Summary of the method: as §1

TYK2 = TYK2 (Homo sapiens, UniProt P29597); assay: Biochemical potency on Tyk2, TR-FRET (LANCE Ultra kinase assay); details: ATP corresponding to Km; cell-free; read-out: TYK2 inhibitory activity (pIC50) (converted)
Summary of the method: as §1

[8] = system: pSTAT6 in BEAS-2B human cell line; assay: Inhibition of IL-13 induced pSTAT6 in BEAS; type: cell-based; details: for IC50: Homo sapiens, BEAS-2B, 0.5 h, IL-13 trigger, 30 min, parent compound; for Fold difference parent vs predicted acid metabolite: ratio=IC50 predicted acid metabolite/IC50 ester
Summary of the method: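 BEAS-2B cells grown 48 h, pre-treated 30 min with compound, then stimulated 30 min with IL-13. Lysate pSTAT6 (Tyr641) measured by sandwich ELISA. Eleven 5-fold dilutions from 10 μM, in duplicate, fitted to IC50.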

Chain of JAK2 (O60674 whole entry): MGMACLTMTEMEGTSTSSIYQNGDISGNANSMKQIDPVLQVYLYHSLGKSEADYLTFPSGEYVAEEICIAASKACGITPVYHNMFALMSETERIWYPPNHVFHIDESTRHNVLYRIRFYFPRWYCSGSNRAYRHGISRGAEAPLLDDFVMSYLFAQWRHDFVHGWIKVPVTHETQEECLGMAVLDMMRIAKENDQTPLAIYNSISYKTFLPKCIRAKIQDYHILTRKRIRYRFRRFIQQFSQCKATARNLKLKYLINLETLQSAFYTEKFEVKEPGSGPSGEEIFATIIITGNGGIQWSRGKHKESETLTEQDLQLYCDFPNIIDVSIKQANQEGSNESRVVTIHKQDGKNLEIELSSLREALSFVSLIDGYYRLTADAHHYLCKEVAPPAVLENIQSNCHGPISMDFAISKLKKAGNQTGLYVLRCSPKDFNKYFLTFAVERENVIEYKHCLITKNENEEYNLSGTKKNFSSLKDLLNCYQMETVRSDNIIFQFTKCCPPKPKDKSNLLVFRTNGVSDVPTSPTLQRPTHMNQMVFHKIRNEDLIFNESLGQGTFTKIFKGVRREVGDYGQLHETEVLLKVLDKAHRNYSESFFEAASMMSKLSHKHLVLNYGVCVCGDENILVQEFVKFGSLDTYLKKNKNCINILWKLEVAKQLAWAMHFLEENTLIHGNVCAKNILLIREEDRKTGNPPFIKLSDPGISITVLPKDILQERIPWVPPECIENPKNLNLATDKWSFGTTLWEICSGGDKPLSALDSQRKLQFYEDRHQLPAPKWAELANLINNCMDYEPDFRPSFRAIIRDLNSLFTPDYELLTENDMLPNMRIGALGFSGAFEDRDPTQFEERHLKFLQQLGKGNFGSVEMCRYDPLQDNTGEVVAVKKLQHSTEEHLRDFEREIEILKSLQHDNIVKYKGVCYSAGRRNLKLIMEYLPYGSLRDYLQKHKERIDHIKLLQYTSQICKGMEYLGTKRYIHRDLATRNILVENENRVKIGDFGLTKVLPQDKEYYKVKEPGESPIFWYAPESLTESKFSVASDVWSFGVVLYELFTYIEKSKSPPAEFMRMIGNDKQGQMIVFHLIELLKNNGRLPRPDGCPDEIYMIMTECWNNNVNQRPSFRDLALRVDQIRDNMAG
Chain of TYK2 (P29597 whole entry): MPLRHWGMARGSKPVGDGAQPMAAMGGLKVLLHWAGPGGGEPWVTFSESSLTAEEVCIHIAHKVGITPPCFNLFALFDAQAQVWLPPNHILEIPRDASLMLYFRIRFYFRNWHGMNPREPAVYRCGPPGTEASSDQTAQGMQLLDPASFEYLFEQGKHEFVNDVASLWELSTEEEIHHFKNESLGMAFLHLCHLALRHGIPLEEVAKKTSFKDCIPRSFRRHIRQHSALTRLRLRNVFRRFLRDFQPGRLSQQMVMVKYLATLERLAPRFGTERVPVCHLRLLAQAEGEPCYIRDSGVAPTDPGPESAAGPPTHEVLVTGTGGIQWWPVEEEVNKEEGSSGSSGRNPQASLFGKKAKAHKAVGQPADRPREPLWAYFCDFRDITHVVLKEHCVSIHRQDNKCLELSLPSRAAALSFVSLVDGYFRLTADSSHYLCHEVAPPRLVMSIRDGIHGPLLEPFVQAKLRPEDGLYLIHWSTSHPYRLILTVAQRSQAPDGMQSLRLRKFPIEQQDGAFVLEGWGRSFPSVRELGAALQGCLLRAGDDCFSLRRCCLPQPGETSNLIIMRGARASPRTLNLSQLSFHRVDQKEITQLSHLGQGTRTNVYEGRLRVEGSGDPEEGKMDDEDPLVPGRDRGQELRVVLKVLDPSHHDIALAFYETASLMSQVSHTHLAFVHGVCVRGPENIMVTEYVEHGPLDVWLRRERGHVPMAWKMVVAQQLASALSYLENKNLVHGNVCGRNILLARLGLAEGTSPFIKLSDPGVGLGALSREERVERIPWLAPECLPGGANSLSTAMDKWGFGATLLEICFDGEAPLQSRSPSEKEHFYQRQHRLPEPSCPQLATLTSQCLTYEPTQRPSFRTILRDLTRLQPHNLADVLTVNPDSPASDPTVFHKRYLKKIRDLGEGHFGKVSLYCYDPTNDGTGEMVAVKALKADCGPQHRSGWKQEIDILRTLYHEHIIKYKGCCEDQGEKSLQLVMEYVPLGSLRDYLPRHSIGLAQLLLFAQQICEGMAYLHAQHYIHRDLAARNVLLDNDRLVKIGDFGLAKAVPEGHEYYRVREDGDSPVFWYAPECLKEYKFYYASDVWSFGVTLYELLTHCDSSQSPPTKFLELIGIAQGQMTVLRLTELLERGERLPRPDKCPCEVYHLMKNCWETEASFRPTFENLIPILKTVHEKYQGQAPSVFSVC
Chain of JAK1 (P23458 whole entry): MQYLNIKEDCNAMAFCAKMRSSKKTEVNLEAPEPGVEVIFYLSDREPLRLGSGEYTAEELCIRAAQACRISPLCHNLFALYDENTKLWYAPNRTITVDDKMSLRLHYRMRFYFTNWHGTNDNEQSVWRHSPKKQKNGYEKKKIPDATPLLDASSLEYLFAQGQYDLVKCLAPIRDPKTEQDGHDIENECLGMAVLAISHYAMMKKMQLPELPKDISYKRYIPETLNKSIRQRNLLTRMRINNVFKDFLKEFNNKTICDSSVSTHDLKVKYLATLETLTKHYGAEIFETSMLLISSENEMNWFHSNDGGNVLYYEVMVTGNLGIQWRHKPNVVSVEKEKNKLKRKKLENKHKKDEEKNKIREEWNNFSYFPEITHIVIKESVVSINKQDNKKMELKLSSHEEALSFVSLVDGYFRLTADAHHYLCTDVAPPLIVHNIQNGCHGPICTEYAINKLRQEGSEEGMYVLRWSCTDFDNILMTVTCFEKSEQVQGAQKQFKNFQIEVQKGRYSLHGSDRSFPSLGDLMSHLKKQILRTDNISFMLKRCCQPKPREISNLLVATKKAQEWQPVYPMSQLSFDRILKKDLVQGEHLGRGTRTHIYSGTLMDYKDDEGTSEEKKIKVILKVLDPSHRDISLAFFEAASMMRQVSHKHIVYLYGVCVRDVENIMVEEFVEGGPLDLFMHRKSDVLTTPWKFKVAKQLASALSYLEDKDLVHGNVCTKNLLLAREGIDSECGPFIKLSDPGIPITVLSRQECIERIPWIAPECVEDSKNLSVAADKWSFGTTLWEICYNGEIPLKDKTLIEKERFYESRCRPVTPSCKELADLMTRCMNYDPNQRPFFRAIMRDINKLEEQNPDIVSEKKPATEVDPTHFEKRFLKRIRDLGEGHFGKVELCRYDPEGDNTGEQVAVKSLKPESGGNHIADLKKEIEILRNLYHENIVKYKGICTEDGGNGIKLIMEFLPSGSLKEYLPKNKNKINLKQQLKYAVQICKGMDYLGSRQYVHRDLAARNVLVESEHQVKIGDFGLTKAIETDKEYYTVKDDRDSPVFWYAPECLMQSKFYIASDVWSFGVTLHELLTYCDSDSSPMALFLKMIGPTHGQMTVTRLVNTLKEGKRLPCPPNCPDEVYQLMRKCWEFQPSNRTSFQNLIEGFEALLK

Compound	IC50 (JAK1)	IC50 (JAK2)	IC50 (JAK3)	IC50 (TYK2)	IC50 [8]	Fold difference parent vs predicted acid metabolite [8]	other results
CCS(=O)(=O)N1CC(CC#N)(n2cc(-c3ncnc4[nH]ccc34)cn2)C1 [Baricitinib, baricitinib]	–	–	–	–	–	–	biomarkers' levels of lung fibrosis and inflammation [1]: reduces the biomarkers' levels of lung fibrosis and inflammation; safety as immune modulator [1]: safe immune modulator; admission rate of the intensive care unit [2]: borderline impact; incidence of acute respiratory distress syndrome (ARDS) [2]: borderline impact; risk of mortality [2]: reduced risk of mortality; use of invasive mechanical ventilation [2]: reduced the use of invasive mechanical ventilation
N#CC[C@H](C1CCCC1)n1cc(-c2ncnc3[nH]ccc23)cn1 [Ruxolitinib, ruxolitinib]	–	–	–	–	–	–	fibrotic lesions in lung [3]: ameliorated the fibrotic lesions in lung; levels of fibrotic molecular markers [3]: reduced levels of fibrotic molecular markers; admission rate of the intensive care unit [2]: borderline impact; incidence of acute respiratory distress syndrome (ARDS) [2]: borderline impact; risk of mortality [2]: reduced risk of mortality; use of invasive mechanical ventilation [2]: reduced the use of invasive mechanical ventilation; clinical symptoms and chest computed tomography images ([2]; COVID-19 patients): improved the clinical symptoms and chest computed tomography images
CN(CCC#N)C1CCN(C(=O)Cn2cc(NC(=O)c3cnn4cccnc34)c(-c3cc(Cl)ccc3OC(F)F)n2)CC1 [iJak-381]	–	–	–	–	–	–	BAL eosinophilia (OVA-challenged mice): reduced; CCL11 (OVA-challenged mice): reduced; Muc5AC (OVA-challenged mice): reduced; airway resistance (OVA-challenged mice): reduced; BAL eosinophilia [4]: reduced; CCL11 [4]: reduced; CXCL1 [4]: reduced; neutrophilia [4]: reduced
C[C@@H]1CCN(C(=O)CC#N)C[C@@H]1N(C)c1ncnc2[nH]ccc12 [tofacitinib]	–	–	–	–	–	–	preventive effect in experimental dermal and pulmonary fibrosis [5]: acted as a preventive agent; efficacy and safety in aggressive interstitial lung disease [6]: corroborated the efficacy and safety; eosinophils count [7]: reduced eosinophils count
COc1cc2c(cc1-n1nc(C(=O)NCCN3CCC(C(=O)OC(C)C)CC3)c3cnc(-c4cnn5cccnc45)cc31)OCCN2 [Example 45, isopropyl 1-(2-(1-(6-methoxy-3,4-dihydro-2H-benzo[b][1,4]oxazin-7-yl)-6-(pyrazolo[1,5-a]pyrimidin-3-yl)-1H-pyrazolo[4,3-c]pyridine-3-carboxamido)ethyl)piperidine-4-carboxylate]	≤ 5.01 nM	≤ 5.01 nM	≤ 5.01 nM	5.01 to 50.1 nM	≤ 5.01 nM	kkkk (ratio≥200)	–
CCOC(=O)C1CCN(CCNC(=O)c2nn(-c3cc4c(cc3OC)NCCO4)c3cc(-c4cnn5cccnc45)ncc23)CC1 [Example 9, ethyl 1-(2-(1-(6-methoxy-3,4-dihydro-2H-benzo[b][1,4]oxazin-7-yl)-6-(pyrazolo[1,5-a]pyrimidin-3-yl)-1H-pyrazolo[4,3-c]pyridine-3-carboxamido)ethyl)piperidine-4-carboxylate]	≤ 5.01 nM	≤ 5.01 nM	≤ 5.01 nM	5.01 to 50.1 nM	≤ 5.01 nM	kkkk (ratio≥200)	–
COc1cc2c(cc1-n1nc(C(=O)NCCN3CCC(C(=O)OCCCC#N)CC3)c3cnc(-c4cnn5cccnc45)cc31)OCCN2 [Example 54, 3-cyanopropyl 1-(2-(1-(6-methoxy-3,4-dihydro-2H-benzo[b][1,4]oxazin-7-yl)-6-(pyrazolo[1,5-a]pyrimidin-3-yl)-1H-pyrazolo[4,3-c]pyridine-3-carboxamido)ethyl)piperidine-4-carboxylate]	≤ 5.01 nM	≤ 5.01 nM	≤ 5.01 nM	5.01 to 50.1 nM	≤ 5.01 nM	kkkk (ratio≥200)	–
CCOC(=O)C1CN(CCNC(=O)c2nn(-c3cc4c(cc3OC)NCCO4)c3cc(-c4cnn5cccnc45)ncc23)CCN1C (stereo not shown) [Example 36, ethyl 4-(2-(1-(6-methoxy-3,4-dihydro-2H-benzo[b][1,4]oxazin-7-yl)-6-(pyrazolo[1,5-a]pyrimidin-3-yl)-1H-pyrazolo[4,3-c]pyridine-3-carboxamido)ethyl)-1-methylpiperazine-2-carboxylate]	≤ 5.01 nM	5.01 to 50.1 nM	≤ 5.01 nM	5.01 to 50.1 nM	5.01 to 50.1 nM	–	–
COc1cc2c(cc1-n1nc(C(=O)NCCN3CCC(C(=O)OCC4CN(C)CCO4)CC3)c3cnc(-c4cnn5cccnc45)cc31)OCCN2 (stereo not shown) [Example 19, (4-methylmorpholin-2-yl)methyl 1-(2-(1-(6-methoxy-3,4-dihydro-2H-benzo[b][1,4]oxazin-7-yl)-6-(pyrazolo[1,5-a]pyrimidin-3-yl)-1H-pyrazolo[4,3-c]pyridine-3-carboxamido)ethyl)piperidine-4-carboxylate]	≤ 5.01 nM	≤ 5.01 nM	≤ 5.01 nM	5.01 to 50.1 nM	≤ 5.01 nM	kkkk (ratio≥200)	–
COc1cc2c(cc1-n1nc(C(=O)NCCCN3CCC(C(=O)OC4CCN(C)CC4)CC3)c3cnc(-c4cnn5cccnc45)cc31)OCCN2 [Example 26, 1-methylpiperidin-4-yl 1-(3-(1-(6-methoxy-3,4-dihydro-2H-benzo[b][1,4]oxazin-7-yl)-6-(pyrazolo[1,5-a]pyrimidin-3-yl)-1H-pyrazolo[4,3-c]pyridine-3-carboxamido)propyl)piperidine-4-carboxylate]	5.01 to 50.1 nM	≤ 5.01 nM	≤ 5.01 nM	5.01 to 50.1 nM	5.01 to 50.1 nM	–	–
CCOC(=O)C1CCN(CCNC(=O)c2nn(-c3cc4c(cc3OC)NCCO4)c3cc(Nc4ncc[nH]c4=O)ncc23)CC1 [Example 58, ethyl 1-(2-(1-(6-methoxy-3,4-dihydro-2H-benzo[b][1,4]oxazin-7-yl)-6-((3-oxo-3,4-dihydropyrazin-2-yl)amino)-1H-pyrazolo[4,3-c]pyridine-3-carboxamido)ethyl)piperidine-4-carboxylate]	≤ 5.01 nM	≤ 5.01 nM	≤ 5.01 nM	5.01 to 50.1 nM	5.01 to 50.1 nM	kkkk (ratio≥200)	–
